According to patent US11179383B2 (Gilead Sciences, Inc., priority 2018, dated 2021):

Target: T1, α4β7 integrin (Homo sapiens, UniProt P13612+P26010)
T1 construct: monitoring the capture of α4β7 integrin expressing cells on a recombinant MadCAM-1 extracellular domain-coated plate; endogenous in cells; host or cells: RPMI8866 cells
T1 sequence (P13612 34-1032): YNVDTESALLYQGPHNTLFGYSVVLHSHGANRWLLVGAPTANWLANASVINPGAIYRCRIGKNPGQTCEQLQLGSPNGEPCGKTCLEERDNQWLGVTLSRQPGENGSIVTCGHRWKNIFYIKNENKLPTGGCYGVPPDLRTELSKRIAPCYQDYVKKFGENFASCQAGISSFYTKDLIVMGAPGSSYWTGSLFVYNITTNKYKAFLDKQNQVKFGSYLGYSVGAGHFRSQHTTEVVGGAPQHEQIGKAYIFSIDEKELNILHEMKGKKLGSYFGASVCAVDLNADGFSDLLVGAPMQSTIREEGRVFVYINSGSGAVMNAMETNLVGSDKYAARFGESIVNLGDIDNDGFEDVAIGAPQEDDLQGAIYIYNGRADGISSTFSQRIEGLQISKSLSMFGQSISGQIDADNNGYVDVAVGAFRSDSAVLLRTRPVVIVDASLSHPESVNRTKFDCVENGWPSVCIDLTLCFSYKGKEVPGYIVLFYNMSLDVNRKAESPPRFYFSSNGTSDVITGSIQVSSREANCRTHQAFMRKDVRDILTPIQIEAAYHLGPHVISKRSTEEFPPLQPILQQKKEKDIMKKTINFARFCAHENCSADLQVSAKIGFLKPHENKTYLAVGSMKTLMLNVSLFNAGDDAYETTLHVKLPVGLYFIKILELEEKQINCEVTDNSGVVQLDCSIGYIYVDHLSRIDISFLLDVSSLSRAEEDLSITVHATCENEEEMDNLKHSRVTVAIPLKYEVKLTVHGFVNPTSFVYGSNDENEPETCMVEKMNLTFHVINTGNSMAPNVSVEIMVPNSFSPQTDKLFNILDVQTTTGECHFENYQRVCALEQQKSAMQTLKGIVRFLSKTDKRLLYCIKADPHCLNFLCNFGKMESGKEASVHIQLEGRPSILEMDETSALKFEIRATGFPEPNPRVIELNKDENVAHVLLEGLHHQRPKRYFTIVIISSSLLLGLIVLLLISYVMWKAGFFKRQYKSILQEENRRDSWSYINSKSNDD
T1 sequence (P26010 20-798): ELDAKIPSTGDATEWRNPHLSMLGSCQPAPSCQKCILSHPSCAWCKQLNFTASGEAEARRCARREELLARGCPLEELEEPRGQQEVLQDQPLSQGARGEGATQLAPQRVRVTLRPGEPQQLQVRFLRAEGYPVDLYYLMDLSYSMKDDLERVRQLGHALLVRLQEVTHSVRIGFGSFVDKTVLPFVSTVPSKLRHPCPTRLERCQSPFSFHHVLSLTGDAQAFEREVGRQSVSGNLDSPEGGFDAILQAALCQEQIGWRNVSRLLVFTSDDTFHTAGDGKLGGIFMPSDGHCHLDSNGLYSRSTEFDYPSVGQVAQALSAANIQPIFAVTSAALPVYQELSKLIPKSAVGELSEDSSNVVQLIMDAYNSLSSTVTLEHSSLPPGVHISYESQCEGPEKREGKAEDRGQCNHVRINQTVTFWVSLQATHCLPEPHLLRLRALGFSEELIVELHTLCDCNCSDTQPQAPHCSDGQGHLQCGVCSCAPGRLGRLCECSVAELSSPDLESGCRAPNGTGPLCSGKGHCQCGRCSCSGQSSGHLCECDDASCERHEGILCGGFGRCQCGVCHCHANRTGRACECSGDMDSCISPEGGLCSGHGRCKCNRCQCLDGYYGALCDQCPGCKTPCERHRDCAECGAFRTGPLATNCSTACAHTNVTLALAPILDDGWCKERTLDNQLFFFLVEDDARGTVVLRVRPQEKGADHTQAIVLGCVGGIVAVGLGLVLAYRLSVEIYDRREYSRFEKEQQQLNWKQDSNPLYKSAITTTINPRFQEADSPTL
Assay: α4β7 Integrin Cell Capture Assay
Assay type: cell-based
Conditions: capture of α4β7 integrin expressing RPMI8866 cells on recombinant MadCAM-1 extracellular domain-coated plate; DMEM+0.5% FBS+0.5 mM MnCl2; read-out: EC50 α4β7
Description: α4β7 Integrin Cell Capture Assay
The potency of inhibitors in preventing α4β7 integrin interaction with MadCAM-1 was measured by monitoring the capture of α4β7 integrin expressing cells on a recombinant MadCAM-1 extracellular domain-coated plate.
384-Well plates (Corning 3702) were coated with MadCAM-1 extracellular domain by dispensing 20 μL of MAdCAM-1 at 1.0 μg/mL per well and incubating overnight at 4° C. The plates were then washed with PBS and blocked with 3% BSA for 2 hours before being washed again.
RPMI8866 cells were spun down and re-suspended in assay medium (DMEM+0.5% FBS+0.5 mM MnCl2) at a density of 0.5×10^6 cells/mL. The cells were then dispensed (60 μL/well) to a 384-well plate (Greiner 781280) that was previously spotted with 60 nL of test compound per well. The plates were incubated at 37° C. for 1 hour. 50 μL of cells were transferred to the blocked, MadCAM-1-coated plates and incubated for 30 minutes at 37° C. 10 μL of 12% glutaraldehyde containing Hoechst 33342 (0.06 mg/mL) was added to the cells (2% glutaraldehyde and 0.01 mg/mL final concentrations). The plates were incubated for 90 minutes at room temperature. The plates were then washed 3 times with 70 μL of PBS per well and imaged on a Cellomics ArrayScan instrument. The cells that were bound to the plate were counted and plotted against the compound concentration to determine the EC50 of the test compounds.

| Compound | EC50 [nM] |
| --- | --- |
| Cc1c(-c2ccc(C[C@H](NC(=O)c3c(Cl)cccc3Cl)C(=O)O)c3ncccc23)c(=O)n(C)c2ccc(F)cc12 (single isomer, unassigned) [Example 11] | 0.5 |
| Cn1c(=O)c(-c2ccc(C[C@H](NC(=O)c3c(Cl)cccc3Cl)C(=O)O)c3ncccc23)c(C(F)(F)F)c2cc(Br)ccc21 (single isomer, unassigned) [Example 64] | 4.4 |
| Cc1c(-c2ccc(C[C@H](NC(=O)c3c(Cl)cccc3Cl)C(=O)O)c3ncccc23)c(=O)n(C)c2ccccc12 (single isomer, unassigned) [Example 47] | 28.6 |
| COc1cc(F)c(F)cc1-c1ccc(C[C@H](NC(=O)c2c(Cl)cccc2Cl)C(=O)O)c2ncccc12 [Example 46, (S)-2-(2,6-dichlorobenzamido)-3-(5-(4,5-difluoro-2-methoxyphenyl)quinolin-8-yl)propanoic acid] | 32.2 |
| O=C(N[C@@H](Cc1ccc(-c2ccc(F)cc2Cl)c2c(-c3ccc(F)cc3Cl)ccnc12)C(=O)O)c1c(F)cccc1F [Example 91, (S)-3-(4,5-bis(2-chloro-4-fluorophenyl)quinolin-8-yl)-2-(2,6-difluorobenzamido)propanoic acid] | 686 |
| COc1cc(F)cc(C(F)(F)F)c1-c1ccc(C[C@H](NC(=O)c2c(Cl)cccc2Cl)C(=O)O)c2ncccc12 [Example 35, (2S)-2-(2,6-dichlorobenzamido)-3-(5-(4-fluoro-2-methoxy-6-(trifluoromethyl)phenyl)quinolin-8-yl)propanoic acid] | 53.5 |
| O=C(N[C@@H](Cc1ccc(-c2c(Cl)cc(F)cc2Cl)c2cccnc12)C(=O)O)c1c(F)cccc1F [Example 1, (S)-3-(5-(2,6-dichloro-4-fluorophenyl)quinolin-8-yl)-2-(2,6-difluorobenzamido)propanoic acid] | 210 |
| COc1cc(F)c(Cl)cc1-c1ccc(C[C@H](NC(=O)c2c(Cl)cccc2Cl)C(=O)O)c2ncccc12 [Example 52, (S)-3-(5-(5-chloro-4-fluoro-2-methoxyphenyl)quinolin-8-yl)-2-(2,6-dichlorobenzamido)propanoic acid] | 43.8 |
| COc1cccc(F)c1C(=O)N[C@@H](Cc1ccc(-c2c(Cl)cc(F)cc2Cl)c2cccnc12)C(=O)O [Example 2, (S)-3-(5-(2,6-dichloro-4-fluorophenyl)quinolin-8-yl)-2-(2-fluoro-6-methoxybenzamido)propanoic acid] | 417 |
| Cn1cc(C(F)(F)F)cc(-c2ccc(C[C@H](NC(=O)c3c(Cl)cccc3Cl)C(=O)O)c3ncccc23)c1=O [Example 23, (S)-2-(2,6-dichlorobenzamido)-3-(5-(1-methyl-2-oxo-5-(trifluoromethyl)-1,2-dihydropyridin-3-yl)quinolin-8-yl)propanoic acid] | 18.5 |

Second part, the molecule after the results:

| EC50 [nM] | Compound |
| --- | --- |
| 3.9 | Cn1c(=O)c(-c2ccc(C[C@H](NC(=O)c3c(Cl)cccc3Cl)C(=O)O)c3ccccc23)c(C(F)(F)F)c2ccccc21 [Example 121, (S)-2-(2,6-dichlorobenzamido)-3-(4-(1-methyl-2-oxo-4-(trifluoromethyl)-1,2-dihydroquinolin-3-yl)naphthalen-1-yl)propanoic acid] |
| 0.4 | CCOCc1cc(OC)c(-c2ccc(C[C@H](NC(=O)c3c(F)cc(NS(=O)(=O)c4ccc(-c5ccnc(F)c5)cc4)cc3F)C(=O)O)c3cnn(C)c23)c(OC)c1 (single isomer, unassigned) [Example 147] |
| 26.8 | CCOCc1cc(OC)c(-c2ccc(C[C@H](NC(=O)c3c(F)cccc3F)C(=O)O)c3nccc(Cl)c23)c(OC)c1 [Example 93, (S)-3-(4-chloro-5-(4-(ethoxymethyl)-2,6-dimethoxyphenyl)quinolin-8-yl)-2-(2,6-difluorobenzamido)propanoic acid] |
| 2.1 | Cc1c(-c2ccc(C[C@H](NC(=O)c3c(Cl)cccc3Cl)C(=O)O)c3ccccc23)c(=O)n(C)c(=O)n1C (single isomer, unassigned) [Example 109] |
| 3.6 | CCOCc1cc(OC)c(-c2ccc(C[C@@H](NC(=O)c3c(F)cc(NS(=O)(=O)c4ccc(-c5ccnc(F)c5)cc4)cc3F)C(=O)O)c3cnn(C)c23)c(OC)c1 (single isomer, unassigned) [Example 148] |
| 206 | CC1(C)C=Cc2c(C[C@H](NC(=O)c3c(Cl)cccc3Cl)C(=O)O)ccc(-c3c(Cl)cc(F)cc3Cl)c2O1 [Example 170, (S)-3-(8-(2,6-dichloro-4-fluorophenyl)-2,2-dimethyl-2H-chromen-5-yl)-2-(2,6-dichlorobenzamido)propanoic acid] |
| 24.4 | CCOCc1cc(OC)c(-c2cnc(C[C@H](NC(=O)c3c(F)cc(NS(=O)(=O)c4ccc(-c5ccnc(F)c5)cc4)cc3F)C(=O)O)c3cccnc23)c(OC)c1 [Example 166, (S)-2-(2,6-difluoro-4-((4-(2-fluoropyridin-4-yl)phenyl)sulfonamido)benzamido)-3-(8-(4-(ethoxymethyl)-2,6-dimethoxyphenyl)-1,6-naphthyridin-5-yl)propanoic acid] |
| 53.3 | O=C(N[C@@H](Cc1ccc(-c2cccc3c2OCCC3)c2ccccc12)C(=O)O)c1c(F)cccc1F [Example 112, (S)-3-(4-(chroman-8-yl)naphthalen-1-yl)-2-(2,6-difluorobenzamido) propanoic acid] |
| 0.8 | CC[C@@H](Nc1cc(F)c(C(=O)N[C@@H](Cc2ccc(-c3c(OC)cnn(C)c3=O)c3ccccc23)C(=O)O)c(F)c1)C(F)(F)F (single isomer, unassigned) [Example 136] |
| 34.9 | CCOCc1cc(OC)c(-c2ccc(C[C@@H](NC(=O)c3c(F)cc(NS(=O)(=O)c4ccc(-c5ccnc(F)c5)cc4)cc3F)C(=O)O)c3c2cnn3C)c(OC)c1 (single isomer, unassigned) [Example 145] |
| 572 | COc1cc(F)c(F)cc1-c1ccc(C[C@H](NC(=O)c2c(Cl)cccc2Cl)C(=O)O)c2nccc(Cl)c12 (single isomer, unassigned) [Example 96] |
| 26.6 | CCOCc1cc(OC)c(-c2ncc(C[C@H](NC(=O)c3c(F)cc(N[C@H](CC)C(F)(F)F)cc3F)C(=O)O)c3ccccc23)c(OC)c1 [Example 168, (S)-2-(2,6-difluoro-4-(((R)-1,1,1-trifluorobutan-2-yl)amino)benzamido)-3-(1-(4-(ethoxymethyl)-2,6-dimethoxyphenyl)isoquinolin-4-yl)propanoic acid] |
